Data taken from US11884961B2, “DNA-glycan conjugates and methods of use” (GEORGIA STATE UNIVERSITY RESEARCH FOUNDATION, INC., priority 2017, dated 2024).

Tests used:
[1] = system: VK9, a mouse IgG anti-Globo H monoclonal antibody; test: ELISA of biotinylated glycans captured on streptavidin against VK9; type: binding; details: biotinylated sugars captured on streptavidin; OD450
Source text: (§1) Initially we validated the selected system with the conventional ELISA to confirm the antibody binding capacity and specificity of the glycans. Since sugars have low binding affinity for unmodified plastic surfaces, the binding protein, streptavidin, was used to capture biotinylated sugars. In another experiment we also tested DEGL using ELISA to see the effect of different presentation of glycans. For this assay, we coated the DEGL onto plastic surfaces directly. Both naked glycan and DEGL was tested against VK9, a mouse IgG anti-Globo H monoclonal antibody. […] We rationalize this difference in pattern to the different presentation of glycan epitope, all of the four glycans have the same terminal epitope of Fuc a1-2 Gal(b1-3 GalNAc), which is recognized by VK9 antibodies,[38] but a long DNA tag on the DEGL will give more space to the glycan antigens binding with the antibody, while normal ELISA would block the binding of the short glycans of Bb3 and Bb2. […]
(§2) A 96-well plate (Costar® Polystyrene High Binding Plate 3590) was coated with […] of 10 ug/ml Streptavidin (Sigma) in 0.01 M PBS (pH 7.4) at 4° C. overnight. […] The plate was then read at OD450 with a plate reader (PerkinElmer®, 2030 Multilabel Reader Victor®). The result was calculated by minus OD450 value of control (no antibody).

VK9 antibody = test: Multiplex detection of DEGL against VK9 antibody by NGS; type: binding, mouse
Method: Next, we wanted to translate the results to more promising NGS based parallel screening. Initially we tested the different concentrations of DEGL with different concentrations of VK9 antibody using the PCR and qPCR assays. We incubated 1 uM, 500 nM, 100 nM and 10 nM samples with 0.5 μL, 1 μL, and 2 μL of the VK9 antibody (0.5 μg/μL), and unbound glycans were washed out after precipitating the bound glycan-VK9 complex on protein A/G beads. Each assay was compared to the same amount of DEGL with no VK9 negative control. Then, washed beads were used as the template for the NGS analysis. Briefly, beads were diluted to 20 μL, and from this, 2 μL was used for the initial PCR amplification (18 cycles). PCR products were then purified using AMpure beads (Beckman Coulter) according to the manufacturer's protocol and used for the NGS fusion PCR to incorporate the index codes and ion-torrent NGS adapters. Now about 150 bp DNA codes, it was again purified using AMpure beads, and all barcoded samples were run through an Agilent Bioanalyzer for quality control. Samples were then pooled in equimolar concentration and adjusted to the desired 26 pM for the NGS, analyzed using ion-PGM semiconductor sequencer. Data were analyzed using ‘FASTAPTAMER’ software,[39] and an in house developed program. […]

[2] = system: VK9, a mouse IgG anti-Globo H monoclonal antibody; test: ELISA of DEGL (glycan-DNA codes coated with Pierce DNA coating solution) against VK9; type: binding; details: glycan-DNA conjugates coated directly onto plastic; OD450
Source text: as §1, §2

Substance: Globo-H [GbH]
- ELISA binding intensity of VK9 [1]: very high binding intensities
- relative enrichment in comparison with the no VK9 negative control (VK9 antibody; biotin tagged secondary antibody, magnetic streptavidin beads, NGS): enriched
- enrichment (NGS) (VK9 antibody; modified method with control sequence added after selection, Globo-H series+A and B glycan DEGL): selective enrichment
- ELISA binding of VK9 [2]: strong binding
